Structures can show the parent of a compound that is named as a salt. Where two headings read alike, the source gives them in different places.
Columns and labels:
U937 cells = assay: Cell growth inhibitory effect, U937 cells (Cell counting Kit-8, 72 hours); assay type: cell-based; settings: Homo sapiens, U-937, BCR-ABL negative U937 cells, WST-8 absorbance
Protocol: The plate was incubated in a CO2 incubator overnight. […] The plate was incubated in a CO2 incubator. After 72 hours, 20 μl

K562 cells = assay: Cell growth inhibitory effect, K562 cells (Cell counting Kit-8, 72 hours); settings: for IC50: Homo sapiens, K562, 72 h, read-out: K562 cells (IC50 value: μM); for Ratio (U937 cells/K562 cells): IC50 U937 cells / IC50 K562 cells;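 as to all read-outs here: Read-out is formazan absorbance at 450 nm from WST-8 reduction after a 3 h color reaction, with K562 and U937 cells grown in 96-well plates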
Protocol: of Cell counting Kit-8 (5 mmol/l WST-8, 0.2 mmol/1 1-Methoxy PMS, 150 mmol/l NaCl) (manufactured by Dojindo) was added to each well. After reaction for color development in a CO2 incubator for 3 hours, an absorbance of formazan, generated by reduction of WST-8 was determined at 450 nm using Multi-level counter ARVOsx (manufactured by Wallac).
K562 cells and U937 cells (purchased from American Type Culture Collection) were cultured in a RPMI-1640 medium (manufactured by Sigma) containing 10% (v/v) fetal calf serum (FCS) (manufactures by Sigma) (RPMI-1640/FCS). K562 cells and U937 cells were seeded at a density of 5000 cells/100 μl/well and 4000 cells/100 μl/well in each of 96-hole-plate (manufactured by costar), respectively. The plate was incubated in a CO2 incubator overnight. […] The resulting solution was diluted 500 times in a RPMI-1640/FCS medium and then 100 μl of the diluent was added in a well. The plate was incubated in a CO2 incubator. After 72 hours, 20 μl

[1] = read-out: U937 cells (IC50 value: μM)
[2] = continuation of Table 3, read-out: U937 cells (IC50 value: nμM)

melting point | IC50 (U937 cells; [1]) [µM] | IC50 (K562 cells) [µM] | IC50 (U937 cells; [2]) [µM] | Compound | Ratio (U937 cells/K562 cells) (K562 cells)
189 to 191 °C |  |  |  | Cc1ccc(NC(=O)c2ccc(CN3CCN(C)CC3)c(C(F)(F)F)c2)cc1Nc1cc(-c2cccnc2)ccn1 (as salt: methanesulfonate) [Example 29, 4-(4-methylpiperazin-1-ylmethyl)-3-trifluoromethyl-N-{4-methyl-3-[4-(3-pyridyl)pyridin-2-ylamino]phenyl}benzamide methanesulfonate] | 
142 to 149 °C (dec.) |  |  |  | CN[C@H]1CCN(Cc2ccc(C(=O)Nc3ccc(C)c(Nc4nccc(-c5cncnc5)n4)c3)cc2C(F)(F)F)C1 (as salt: salt) [Example 68, (−)-4-[(S)-3-(methylamino)pyrrolidin-1-ylmethyl]-3-trifluoromethyl-N-{4-methyl-3-[4-(5-pyrimidinyl)pyrimidin-2-ylamino]phenyl}benzamide] | 
199 to 202 °C (dec.) |  |  |  | Cc1ccc(NC(=O)c2ccc(CN3CCNCC3)c(C(F)(F)F)c2)cc1Nc1nccc(-c2cncnc2)n1 (as salt: trifluoroacetate) [Example 43, 4-(1-piperazinylmethyl)-3-trifluoromethyl-N-{4-methyl-3-[4-(5-pyrimidinyl)pyrimidin-2-ylamino]phenyl}benzamide trifluoroacetate] | 
264 °C (dec.) | 15 | 0.0028 |  | Cc1ccc(NC(=O)c2ccc(CN3CCN(C)CC3)c(C(F)F)c2)cc1Nc1nccc(-c2cncnc2)n1.Cl [Example 2, 3-difluoromethyl-4-(4-methylpiperazin-1-ylmethyl)-N-{4-methyl-3-[4-(5-pyrimidinyl)pyrimidin-2-ylamino]phenyl}benzamide hydrochloride] | 5357
253 to 255 °C (dec.) | 28 | 0.002 |  | CCc1cc(C(=O)Nc2ccc(C)c(Nc3nccc(-c4cncnc4)n3)c2)ccc1CN1CCN(C)CC1.Cl [Example 4, 3-ethyl-4-(4-methylpiperazin-1-ylmethyl)-N-{4-methyl-3-[4-(5-pyrimidinyl)pyrimidin-2-ylamino]phenyl}benzamide hydrochloride] | 14000
202 to 206 °C (dec.) | 4.3 | 0.0012 |  | Cc1ccc(NC(=O)c2ccc(C=C3CCN(C)CC3)c(C(F)(F)F)c2)cc1Nc1nccc(-c2cncnc2)n1.Cl [Example 6, 4-(1-methylpiperidin-4-ylidenemethyl)-3-trifluoromethyl-N-{4-methyl-3-[4-(5-pyrimidinyl)pyrimidin-2-ylamino]phenyl}benzamide hydrochloride] | 3583
227 to 231 °C (dec.) | 4.6 | 0.00098 |  | Cc1ccc(NC(=O)c2ccc(CC3CCN(C)CC3)c(C(F)(F)F)c2)cc1Nc1nccc(-c2cncnc2)n1.Cl [Example 8, 4-(1-methylpiperidin-4-ylmethyl)-3-trifluoromethyl-N-{4-methyl-3-[4-(5-pyrimidinyl)pyrimidin-2-ylamino]phenyl}benzamide hydrochloride] | 4694
≥ 275 °C | 8.1 | 0.0021 |  | Cc1ccc(NC(=O)c2ccc(OC3CCN(C)CC3)c(C(F)(F)F)c2)cc1Nc1nccc(-c2cncnc2)n1.Cl [Example 10, 4-(1-methylpiperidin-4-yloxy)-3-trifluoromethyl-N-{4-methyl-3-[4-(5-pyrimidinyl)pyrimidin-2-ylamino]phenyl}benzamide hydrochloride] | 3857
161 to 170 °C (dec.) | 4.7 | 0.0056 |  | Cc1ccc(NC(=O)c2cc(Cl)c(CN3CC[C@H](N(C)C)C3)c(Cl)c2)cc1Nc1nccc(-c2cncnc2)n1.Cl [Example 12, (−)-3,5-dichloro-4-[(S)-3-(dimethylamino)pyrrolidin-1-ylmethyl]-N-{4-methyl-3-[4-(5-pyrimidinyl)pyrimidin-2-ylamino]phenyl}benzamide hydrochloride] | 839
168 to 169 °C (dec.) | 2 | 0.0079 |  | COc1cc(C(=O)Nc2ccc(C)c(Nc3nccc(-c4cncc(Br)c4)n3)c2)ccc1CN1CCN(C)CC1.Cl [Example 14, 3-methoxy-4-(4-methylpiperazin-1-ylmethyl)-N-{3-[4-(5-bromopyridin-3-yl)pyrimidin-2-ylamino]-4-methylphenyl}benzamide hydrochloride] | 253
256 to 259 °C (dec.) | 4.1 | 0.0011 |  | CCN1CCN(Cc2ccc(C(=O)Nc3ccc(C)c(Nc4nccc(-c5cncnc5)n4)c3)cc2C(F)(F)F)CC1.Cl [Example 16, 4-(4-ethylpiperazin-1-ylmethyl)-3-trifluoromethyl-N-{4-methyl-3-[4-(5-pyrimidinyl)pyrimidin-2-ylamino]phenyl}benzamide hydrochloride] | 3727
 |  | 0.0063 | 42 | Cc1ccc(NC(=O)c2ccc(CC3CCN(C)CC3)c(CF)c2)cc1Nc1nccc(-c2cncnc2)n1 [Example 21, 3-fluoromethyl-4-(1-methylpiperidin-4-ylmethyl)-N-{4-methyl-3-[4-(5-pyrimidinyl)pyrimidin-2-ylamino]phenyl}benzamide] | 6667
241 to 242 °C (dec.) |  |  |  | Cc1ccc(NC(=O)c2ccc(CN3CCN(C)CC3)c(C(F)(F)F)c2)cc1Nc1cc(-c2cccnc2)ccn1 [Example 28, 4-(4-methylpiperazin-1-ylmethyl)-3-trifluoromethyl-N-{4-methyl-3-[4-(3-pyridyl)pyridin-2-ylamino]phenyl}benzamide] | 
 |  | 0.0017 | 1.4 | Cc1ccc(NC(=O)c2ccc(CN3CCN(C)CC3)c(C(F)(F)F)c2)cc1Nc1cc(-c2cccnc2)ccn1 [Example 29, 4-(4-methylpiperazin-1-ylmethyl)-3-trifluoromethyl-N-{4-methyl-3-[4-(3-pyridyl)pyridin-2-ylamino]phenyl}benzamide methanesulfonate] | 824
 |  | 0.0019 | 8.9 | Cc1ccc(NC(=O)c2ccc(CN3CC[C@@H](N(C)C)C3)c(C(F)(F)F)c2)cc1Nc1nccc(-c2cncnc2)n1.Cl [Example 38, (+)-4-[(R)-3-(dimethylamino)pyrrolidin-1-ylmethyl]-3-trifluoromethyl-N-{4-methyl-3-[4-(5-pyrimidinyl)pyrimidin-2-ylamino]phenyl}benzamide hydrochloride] | 4684
 |  | 0.0011 | 3.9 | Cc1ccc(NC(=O)c2ccc(CN3CCNCC3)c(C(F)(F)F)c2)cc1Nc1nccc(-c2cncnc2)n1 [Example 43, 4-(1-piperazinylmethyl)-3-trifluoromethyl-N-{4-methyl-3-[4-(5-pyrimidinyl)pyrimidin-2-ylamino]phenyl}benzamide trifluoroacetate] | 3545
 |  | 0.019 | 29 | Cc1ccc(NC(=O)c2ccc(CN3CC[C@H](N)C3=O)c(C(F)(F)F)c2)cc1Nc1nccc(-c2cncnc2)n1 [Example 46, (−)-4-((S)-3-amino-2-oxopyrrolidin-1-ylmethyl)-3-trifluoromethyl-N-{4-methyl-3-[4-(5-pyrimidinyl)pyrimidin-2-ylamino]phenyl}benzamide] | 1526
 |  | 0.004 | 12 | Cc1ccc(NC(=O)c2ccc(CN3CC[C@H](N(C)C)C3)c(C(F)(F)F)c2)cc1Nc1nccc(-c2cncnc2)n1.Cl [Example 48, (−)-4-[(S)-3-(dimethylamino)pyrrolidin-1-ylmethyl]-3-trifluoromethyl-N-{4-methyl-3-[4-(5-pyrimidinyl)pyrimidin-2-ylamino]phenyl}benzamide hydrochloride] | 3000
 |  | 0.004 | 3.9 | Cc1ccc(NC(=O)c2ccc(CN3CCC[C@H]3CN3CCCC3)c(C(F)(F)F)c2)cc1Nc1nccc(-c2cncnc2)n1.Cl [Example 52, (−)-4-[(S)-2-(1-pyrrolidinylmethyl)pyrrolidin-1-ylmethyl]-3-trifluoromethyl-N-{4-methyl-3-[4-(5-pyrimidinyl)pyrimidin-2-ylamino]phenyl}benzamide hydrochloride] | 975
 |  | 0.0022 | 10 | Cc1ccc(NC(=O)c2ccc(CN3CCN[C@@H](C)C3)c(C(F)(F)F)c2)cc1Nc1nccc(-c2cncnc2)n1.Cl [Example 55, 4-((S)-3-methylpiperazin-1-ylmethyl)-3-trifluoromethyl-N-{4-methyl-3-[4-(5-pyrimidinyl)pyrimidin-2-ylamino]phenyl}benzamide] | 4545
 |  | 0.0081 | 13 | CO[C@H]1CN(Cc2ccc(C(=O)Nc3ccc(C)c(Nc4nccc(-c5cncnc5)n4)c3)cc2C(F)(F)F)C[C@@H]1N(C)C.Cl [Example 59, 4-[(3S,4S)-3-(dimethylamino)-4-methoxypyrrolidin-1-ylmethyl]-3-trifluoromethyl-N-{4-methyl-3-[4-(5-pyrimidinyl)pyrimidin-2-ylamino]phenyl}benzamide hydrochloride] | 1605
 |  | 0.0024 | 5.8 | CN[C@H]1CCN(Cc2ccc(C(=O)Nc3ccc(C)c(Nc4nccc(-c5cncnc5)n4)c3)cc2C(F)(F)F)C1 [Example 68, (−)-4-[(S)-3-(methylamino)pyrrolidin-1-ylmethyl]-3-trifluoromethyl-N-{4-methyl-3-[4-(5-pyrimidinyl)pyrimidin-2-ylamino]phenyl}benzamide] | 2417

From patent US7728131B2, “Amide derivative and medicine” (Nippon Shinyaku Co., Ltd., priority 2003, dated 2010)
